In brackets after ≈: the same amount, converted by molar mass. Read-outs that look alike come from different tables or passages of the source.
How the values were obtained:
[1] = tested on: bacterial isolates (clinical isolates and ATCC quality control strains); assay: Minimum Inhibitory Concentrations (MICs) by broth microdilution (CLSI susceptibility testing); type: cell-based
Description: Bacterial isolates were cultivated from −70° C. frozen stocks by overnight passages at 35° C. in ambient air on Mueller-Hinton agar (Beckton Dickinson, Franklin Lakes, N.J.). Clinical isolates tested were obtained from various geographically diverse hospitals in the US and abroad (Focus Diagnostics, Herndon, Va. and JMI, North Liberty, Iowa). Quality control strains were from the American Type Culture Collection (ATCC; Rockville, Md.).
Minimum Inhibitory Concentrations (MICs) were determined by the broth microdilution method in accordance with the Clinical and Laboratory Standards Institute (CLSI) guidelines. In brief, organism suspensions were adjusted to a 0.5 McFarland standard to yield a final inoculum between 3×10^5 and 7×10^5 colony-forming units (CFU)/mL. Drug dilutions and inocula were made in sterile, cation adjusted Mueller-Hinton Broth (Beckton Dickinson). An inoculum volume of 100 μL was added to wells containing 100 μL of broth with 2-fold serial dilutions of drug. All inoculated microdilution trays were incubated in ambient air at 35° C. for 18-24 h. Following incubation, the lowest concentration of the drug that prevented visible growth (OD600 nm<0.05) was recorded as the MIC. Performance of the assay was monitored by the use of laboratory quality-control strains and levofloxacin, a compound with a defined MIC spectrum, in accordance with CLSI guidelines.

[2] = tested on: 3 P. aeruginosa strains (APAE001, APAE002, APAE006); assay: Protein binding: fold change in MIC in the presence of 2% HSA and 0.05% AGP, Geomean of 3 strains; type: cell-based, Pseudomonas aeruginosa; details: MIC in the presence of 2% HSA and 0.05% AGP divided by MIC in the absence; Geomean of 3 P. aeruginosa strains (APAE001, APAE002, APAE006)
Description: The effect of human serum albumin (HSA) and α-1-acid glycoprotein (AGP) from human plasma, which are known to nonspecifically bind to certain antibiotics and thereby reduce their activity (Banéres-Roquet et al. 2009 “Use of a Surface Plasmon Resonance Method to Investigate Antibiotic and Plasma Protein Interactions” Antimicrob. Agents and Chemother. 53(4):1528-1531), was assessed against 3 P. aeruginosa strains (APAE001, APAE002, APAE006). APAE001 is Pseudomonas aeruginosa ATCC27853; APAE002 is a wildtype lab strain of Pseudomonas aeruginosa known as PAM1020 or PA01. APAE006 is a strain of […]/PA01 with efflux deletions: delta mexAB-oprM::CM delta CD-oprJ::Gm delta mexEF-oprN::omega Hg. Lomovskaya, 0 et al. 1999. Use of a Genetic Approach To Evaluate the Consequences of Inhibition of Efflux Pumps in P aeruginosa. Antimicrob. Agents Chemother. 43: 1340-1346.
The standard procedure described in Susceptibility Testing was utilized with one adjustment, specifically 2% HSA and 0.05% AGP were added to the cation adjusted Mueller-Hinton Broth. The MIC for each strain of interest was then assessed in the presence and absence of HSA/AGP. Following MIC determination, the fold change in MIC was determined for each individual strain by dividing the MIC in the presence of HSA/AGP by the MIC in the absence of HSA/AGP. The protein binding Geomean was then calculated using these 3 values.

[3] = APAE1096 is a clinical isolate, broth microdilution, read-out: Minimum Inhibitory Concentrations (MICs) APAE1096
[4] = Pseudomonas aeruginosa, APAE002 is a wildtype lab strain of Pseudomonas aeruginosa known as PAM1020 or PA01, broth microdilution, read-out: Minimum Inhibitory Concentrations (MICs) APAE002
[5] = Pseudomonas aeruginosa, ATCC27853, APAE001 is Pseudomonas aeruginosa ATCC27853, broth microdilution, read-out: Minimum Inhibitory Concentrations (MICs) APAE001
[6] = Pseudomonas aeruginosa, ATCC27853, read-out: Minimum Inhibitory Concentrations (MICs) APAE001
[7] = Pseudomonas aeruginosa, read-out: Minimum Inhibitory Concentrations (MICs) APAE002
[8] = read-out: Minimum Inhibitory Concentrations (MICs) APAE1096

Compound | MIC [1, 3] [mg/L] | MIC [1, 4] [mg/L] | MIC [1, 5] [mg/L] | Protein Binding PB (Geomean of fold change in MIC) [2] | MIC [1, 6] [mg/L] | MIC [1, 7] [mg/L] | MIC [1, 8] [mg/L]
CC(C)(N)[C@H](NC(=O)c1ccc(C#CC#C[C@H]2CC[C@](O)(CO)CC2)cc1)C(=O)NO [Compound 33B, N—((S)-3-amino-1-(hydroxyamino)-3-methyl-1-oxobutan-2-yl)-4-(((1R,4S)-4-hydroxy-4-(hydroxymethyl)cyclohexyl)buta-1,3-diynyl)benzamide] | 1 to 8 (≈ 2.34 to 18.7 µM) | 1 to 8 (≈ 2.34 to 18.7 µM) | < 1 | 5.1 | – | – | –
CC(C)(O)[C@H](NC(=O)c1ccc(C#CC#CCCO)cc1)C(=O)NO [Compound 34, (S)—N-(3-hydroxy-1-(hydroxyamino)-3-methyl-1-oxobutan-2-yl)-4-(6-hydroxyhexa-1,3-diynyl)benzamide] | 1 to 8 (≈ 2.9 to 23.2 µM) | < 1 | < 1 | 2.8 | – | – | –
C[C@@H](N)[C@H](NC(=O)c1ccc(C#CC#CCCO)cc1)C(=O)NO [Compound 35, N-((2S,3R)-3-amino-1-(hydroxyamino)-1-oxobutan-2-yl)-4-(6-hydroxyhexa-1,3-diyn-1-yl)benzamide] | 1 to 8 (≈ 3.04 to 24.3 µM) | < 1 | < 1 | 2.0 | – | – | –
CC(C)(N)[C@H](NC(=O)c1ccc(C#CC#CC[C@H](O)CO)cc1)C(=O)NO [Compound 36, N—((S)-3-amino-1-(hydroxyamino)-3-methyl-1-oxobutan-2-yl)-4-((S)-6,7-dihydroxyhepta-1,3-diyn-1-yl)benzamide] | – | – | – | 2.3 | < 1 | < 1 | 1 to 8 (≈ 2.68 to 21.4 µM)
CC(C)(N)[C@H](NC(=O)c1ccc(C#CC#CC[C@@H](O)CO)cc1)C(=O)NO [Compound 37, N—((S)-3-amino-1-(hydroxyamino)-3-methyl-1-oxobutan-2-yl)-4-((R)-6,7-dihydroxyhepta-1,3-diyn-1-yl)benzamide] | – | – | – | 1.4 | 1 to 8 (≈ 2.68 to 21.4 µM) | 1 to 8 (≈ 2.68 to 21.4 µM) | 1 to 8 (≈ 2.68 to 21.4 µM)
C[C@@H](O)[C@H](NC(=O)c1ccc(C#CC#CCCO)cc1)C(=O)NO [Compound 38, N-((2S,3R)-3-hydroxy-1-(hydroxyamino)-1-oxobutan-2-yl)-4-(6-hydroxyhexa-1,3-diyn-1-yl)benzamide] | 1 to 8 (≈ 3.03 to 24.2 µM) | < 1 | 1 to 8 (≈ 3.03 to 24.2 µM) | 2 | – | – | –
CC(C#CC#Cc1ccc(C(=O)N[C@H](C(=O)NO)C(C)(C)N)cc1)CO (stereo partly drawn) [Compound 39, N—((S)-3-amino-1-(hydroxyamino)-3-methyl-1-oxobutan-2-yl)-4-(6-hydroxy-5-methylhexa-1,3-diyn-1-yl)benzamide] | 1 to 8 (≈ 2.8 to 22.4 µM) | < 1 | < 1 | 2.8 | – | – | –
C[C@H](O)C#CC#Cc1ccc(C(=O)N[C@H](C(=O)NO)C(C)(C)O)cc1 [Compound 40, N—((S)-3-hydroxy-1-(hydroxyamino)-3-methyl-1-oxobutan-2-yl)-4-((S)-5-hydroxyhexa-1,3-diyn-1-yl)benzamide] | 1 to 8 (≈ 2.9 to 23.2 µM) | < 1 | 1 to 8 (≈ 2.9 to 23.2 µM) | 2.6 | – | – | –
C[C@H](O)C#CC#Cc1ccc(C(=O)N[C@H](C(=O)NO)[C@@H](C)N)cc1 [Compound 41, N-((2S,3R)-3-amino-1-(hydroxyamino)-1-oxobutan-2-yl)-4-((S)-5-hydroxyhexa-1,3-diyn-1-yl)benzamide] | 1 to 8 (≈ 3.04 to 24.3 µM) | < 1 | < 1 | 2 | – | – | –
C[C@H](O)C#CC#Cc1ccc(C(=O)N[C@H](C(=O)NO)[C@@H](C)O)cc1 [Compound 42, N-((2S,3R)-3-hydroxy-1-(hydroxyamino)-1-oxobutan-2-yl)-4-((S)-5-hydroxyhexa-1,3-diyn-1-yl)benzamide] | 8 to 16 (≈ 24.2 to 48.4 µM) | 1 to 8 (≈ 3.03 to 24.2 µM) | 1 to 8 (≈ 3.03 to 24.2 µM) | 2.6 | – | – | –
CNC(C)(C)[C@H](NC(=O)c1ccc(C#CC#CC[C@H](O)CO)cc1)C(=O)NO [Compound 43, 4-((S)-6,7-dihydroxyhepta-1,3-diyn-1-yl)-N—((S)-1-(hydroxyamino)-3-methyl-3-(methylamino)-1-oxobutan-2-yl)benzamide] | 1 to 8 (≈ 2.58 to 20.6 µM) | < 1 | < 1 | 1.6 | – | – | –
CNC(C)(C)[C@H](NC(=O)c1ccc(C#CC#CC[C@@H](O)CO)cc1)C(=O)NO [Compound 44, 4-((R)-6,7-dihydroxyhepta-1,3-diyn-1-yl)-N—((S)-1-(hydroxyamino)-3-methyl-3-(methylamino)-1-oxobutan-2-yl)benzamide] | 1 to 8 (≈ 2.58 to 20.6 µM) | < 1 | < 1 | 2.0 | – | – | –
C[C@@H](N)[C@H](NC(=O)c1ccc(C#CC#CC(O)CO)cc1)C(=O)NO (stereo partly drawn) [Compound 45, N-((2S,3R)-3-amino-1-(hydroxyamino)-1-oxobutan-2-yl)-4-(5,6-dihydroxyhexa-1,3-diyn-1-yl)benzamide] | – | – | – | 2.0 | 1 to 8 (≈ 2.9 to 23.2 µM) | < 1 | 1 to 8 (≈ 2.9 to 23.2 µM)
COC(C#CC#Cc1ccc(C(=O)N[C@H](C(=O)NO)C(C)(C)N)cc1)CO (stereo partly drawn) [Compound 47, N—((S)-3-amino-1-(hydroxyamino)-3-methyl-1-oxobutan-2-yl)-4-(6-hydroxy-5-methoxyhexa-1,3-diyn-1-yl)benzamide] | – | – | – | 2.6 | < 1 | < 1 | 1 to 8 (≈ 2.68 to 21.4 µM)
CN[C@H](C)[C@H](NC(=O)c1ccc(C#CC#CCCO)cc1)C(=O)NO [Compound 48, N-((2S,3R)-1-(hydroxyamino)-3-(methylamino)-1-oxobutan-2-yl)-4-(6-hydroxyhexa-1,3-diyn-1-yl)benzamide] | 1 to 8 (≈ 2.91 to 23.3 µM) | < 1 | < 1 | 2.0 | – | – | –
CN[C@H](C)[C@H](NC(=O)c1ccc(C#CC#C[C@H](C)O)cc1)C(=O)NO [Compound 49, N-((2S,3R)-1-(hydroxyamino)-3-(methylamino)-1-oxobutan-2-yl)-4-((S)-5-hydroxyhexa-1,3-diyn-1-yl)benzamide] | 1 to 8 (≈ 2.91 to 23.3 µM) | < 1 | < 1 | 2.0 | – | – | –
CC(O)(C#CC#Cc1ccc(C(=O)N[C@H](C(=O)NO)C(C)(C)N)cc1)CO (stereo partly drawn) [Compound 50, N—((S)-3-amino-1-(hydroxyamino)-3-methyl-1-oxobutan-2-yl)-4-(5,6-dihydroxy-5-methylhexa-1,3-diyn-1-yl)benzamide] | 8 to 16 (≈ 21.4 to 42.8 µM) | 1 to 8 (≈ 2.68 to 21.4 µM) | < 1 | 1.6 | – | – | –
CNC(C)(C)[C@H](NC(=O)c1ccc(C#CC#CC(O)CO)cc1)C(=O)NO (stereo partly drawn) [Compound 51, 4-(5,6-dihydroxyhexa-1,3-diyn-1-yl)-N—((S)-1-(hydroxyamino)-3-methyl-3-(methylamino)-1-oxobutan-2-yl)benzamide] | 1 to 8 (≈ 2.68 to 21.4 µM) | < 1 | < 1 | 1.6 | – | – | –
CC(C)(N)[C@H](NC(=O)c1ccc(C#C/C=C/CC(O)CO)cc1)C(=O)NO (stereo partly drawn) [Compound 52, N—((S)-3-amino-1-(hydroxyamino)-3-methyl-1-oxobutan-2-yl)-4-((E)-6,7-dihydroxyhept-3-en-1-yn-1-yl)benzamide] | 8 to 16 (≈ 21.3 to 42.6 µM) | 1 to 8 (≈ 2.66 to 21.3 µM) | 1 to 8 (≈ 2.66 to 21.3 µM) | 1.0 | – | – | –
